The source made the active and inactive calls.
How the values were obtained:
Assay type in all cases: functional
Protein RecA = molecular target: T1, Protein RecA (Mycobacterium tuberculosis, UniProt P9WHJ3); assay: Fluorescence Cell-Free Homogeneous Dose Retest to Identify Inhibitors of RecA-Intein Splicing Activity. [Related pubchem assays (depositor defined):AID2097, AID2223, AID489010, AID492950]
T1 sequence (P9WHJ3 whole entry): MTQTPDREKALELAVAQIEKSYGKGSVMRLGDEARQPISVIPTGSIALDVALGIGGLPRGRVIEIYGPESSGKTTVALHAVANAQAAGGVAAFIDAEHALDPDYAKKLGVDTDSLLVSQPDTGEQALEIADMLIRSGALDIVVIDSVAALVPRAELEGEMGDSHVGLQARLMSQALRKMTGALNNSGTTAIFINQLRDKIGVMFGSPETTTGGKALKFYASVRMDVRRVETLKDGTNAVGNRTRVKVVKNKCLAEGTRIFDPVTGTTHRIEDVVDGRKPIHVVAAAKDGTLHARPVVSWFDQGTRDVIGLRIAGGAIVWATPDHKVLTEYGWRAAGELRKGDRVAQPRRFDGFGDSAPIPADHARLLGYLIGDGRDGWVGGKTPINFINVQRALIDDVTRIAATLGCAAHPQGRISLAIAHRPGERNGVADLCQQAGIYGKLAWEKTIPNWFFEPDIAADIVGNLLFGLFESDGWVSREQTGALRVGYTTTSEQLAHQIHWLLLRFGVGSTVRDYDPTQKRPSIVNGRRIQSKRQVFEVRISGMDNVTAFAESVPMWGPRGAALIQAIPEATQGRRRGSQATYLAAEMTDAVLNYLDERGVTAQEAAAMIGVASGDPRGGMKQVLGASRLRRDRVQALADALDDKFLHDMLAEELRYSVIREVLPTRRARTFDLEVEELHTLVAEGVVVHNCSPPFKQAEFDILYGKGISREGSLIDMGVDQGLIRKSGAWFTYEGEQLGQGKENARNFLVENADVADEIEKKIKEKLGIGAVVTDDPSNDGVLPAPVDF

HeLa = assay: Cytotoxicity counterscreen assay for transcriptional activators of heat shock protein 70 (Hsp70). [Related pubchem assays: 1203, 1252 ]; conditions: Homo sapiens;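 also: cells exposed to compound for 16 hours before readout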
[1] = molecular target: T2, Replicative DNA helicase DnaB (Mycobacterium tuberculosis, UniProt P9WMR3); assay: DnaB intein splicing inhibitors, dose response, biochemical, cell-free fluorescence (AID 449749)
T2 sequence (P9WMR3 whole entry): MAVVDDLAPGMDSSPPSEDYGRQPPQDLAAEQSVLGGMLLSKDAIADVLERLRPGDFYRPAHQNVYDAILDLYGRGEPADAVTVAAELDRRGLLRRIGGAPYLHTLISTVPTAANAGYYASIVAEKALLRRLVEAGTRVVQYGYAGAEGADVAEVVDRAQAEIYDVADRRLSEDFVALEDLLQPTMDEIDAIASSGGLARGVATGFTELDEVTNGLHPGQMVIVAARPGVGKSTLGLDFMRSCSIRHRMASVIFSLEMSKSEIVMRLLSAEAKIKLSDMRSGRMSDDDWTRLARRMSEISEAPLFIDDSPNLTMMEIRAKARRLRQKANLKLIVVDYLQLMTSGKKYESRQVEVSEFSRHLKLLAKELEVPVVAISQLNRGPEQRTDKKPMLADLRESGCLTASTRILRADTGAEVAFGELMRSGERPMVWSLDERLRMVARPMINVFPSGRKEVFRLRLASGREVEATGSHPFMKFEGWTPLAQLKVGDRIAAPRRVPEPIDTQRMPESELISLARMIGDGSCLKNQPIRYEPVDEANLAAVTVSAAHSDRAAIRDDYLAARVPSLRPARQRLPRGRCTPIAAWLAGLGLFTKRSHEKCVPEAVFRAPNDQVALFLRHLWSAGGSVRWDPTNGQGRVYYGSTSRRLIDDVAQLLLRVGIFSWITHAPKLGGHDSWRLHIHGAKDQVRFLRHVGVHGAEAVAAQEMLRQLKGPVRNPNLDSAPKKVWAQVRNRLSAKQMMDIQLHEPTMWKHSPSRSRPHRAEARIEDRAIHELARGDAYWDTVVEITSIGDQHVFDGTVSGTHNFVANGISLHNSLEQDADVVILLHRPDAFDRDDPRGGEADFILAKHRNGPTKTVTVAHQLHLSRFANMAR

[2] = viability of HCT116 lacking mutant beta-catenin – cell-based, human colon tumor, dose response (AID 1045);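 also: HCT116 colon tumor cells with beta catenin knocked out; cells exposed to compound for 60 hours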
[3] = viability of PTEN-deleted HCT116 cells – cell-based, HCT116 PTEN knockout, dose response (AID 1047);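 also: HCT116 colon tumor cells with PTEN knocked out; cells exposed to compound for 60 hours before readout; potency for loss of cell viability measured by luminescence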
[4] = molecular target: T3, High affinity choline transporter 1 (Homo sapiens, UniProt Q9GZV3); assay: human choline transporter blockers, potency – cell-based, 5-point CRC, membrane potential dye, dose response (AID 504840)
T3 sequence (Q9GZV3 whole entry): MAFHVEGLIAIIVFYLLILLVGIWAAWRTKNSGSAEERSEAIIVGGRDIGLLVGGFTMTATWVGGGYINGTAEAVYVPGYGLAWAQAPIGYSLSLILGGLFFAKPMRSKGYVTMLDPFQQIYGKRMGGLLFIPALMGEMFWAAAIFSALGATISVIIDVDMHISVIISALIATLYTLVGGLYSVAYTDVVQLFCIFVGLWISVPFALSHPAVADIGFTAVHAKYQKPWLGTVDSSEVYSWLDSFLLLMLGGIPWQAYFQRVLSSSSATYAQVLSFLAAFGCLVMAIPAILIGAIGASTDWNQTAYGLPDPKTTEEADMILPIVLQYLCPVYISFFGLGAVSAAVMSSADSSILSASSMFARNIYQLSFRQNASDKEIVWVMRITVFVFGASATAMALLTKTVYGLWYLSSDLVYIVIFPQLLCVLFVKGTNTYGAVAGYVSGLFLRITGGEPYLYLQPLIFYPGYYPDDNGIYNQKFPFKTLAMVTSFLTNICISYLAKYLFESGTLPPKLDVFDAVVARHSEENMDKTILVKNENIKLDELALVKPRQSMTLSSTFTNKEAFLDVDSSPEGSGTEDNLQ

[5] = antiviral protection against BTV-induced cell death – arbovirus, BSR cells, confirmation (AID 1250);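 also: protection from viral cytopathic effect measured as cell viability by ATP luminescence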
HEK293 = assay: Fluorescence-based counterscreen for potentiators or agonists of NPY-Y2: cell-based high-throughput dose response assay to identify inhibitors of cyclic nucleotide gated ion channel (CNGC) activity. In this assay, the parental HEK293 cell line transfected with a cyclic-nucleotide gated ion channel (CNGC)-based cAMP sensor is used to measure inhibition of isoproterenol-induced CNGC activity by test compound.; conditions: Homo sapiens;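 also: stimulus is 1 µM isoproterenol at EC100 plus PDE inhibitor Ro 20-1724 at 25 µM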
[6] = molecular target: T4, Neuropeptide Y receptor type 2 (Homo sapiens, UniProt P49146); assay: Fluorescence-based cell-based high-throughput dose response assay for agonists of NPY-Y2. [Related pubchem assays: 1703 (Screening assay (CNGC inhibitors).), 1359 (Screening assay (NPY-Y2 potentiators or agonists).), 1304 (Screening assay (NPY-Y1 potentiators or agonists).), 1710 (Screening assay (NPY-Y2 agonists).), 1791 (Summary AID.)]
T4 sequence (P49146 whole entry): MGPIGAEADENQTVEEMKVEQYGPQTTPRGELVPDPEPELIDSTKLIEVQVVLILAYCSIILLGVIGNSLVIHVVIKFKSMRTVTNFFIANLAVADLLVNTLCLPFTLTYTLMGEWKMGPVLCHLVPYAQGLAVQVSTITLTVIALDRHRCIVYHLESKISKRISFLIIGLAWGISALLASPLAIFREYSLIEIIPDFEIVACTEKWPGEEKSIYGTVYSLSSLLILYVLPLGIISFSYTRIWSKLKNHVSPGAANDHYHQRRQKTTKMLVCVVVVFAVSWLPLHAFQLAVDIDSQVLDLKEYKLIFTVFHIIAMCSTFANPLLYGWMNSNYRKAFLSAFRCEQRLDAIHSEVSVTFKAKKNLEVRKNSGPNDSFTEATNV

[7] = molecular target: T5, Neuropeptide Y receptor type 1 (Homo sapiens, UniProt P25929); assay: Fluorescence-based counterscreen for agonists of NPY-Y2: cell-based high-throughput dose response assay for agonists of NPY-Y1.
T5 sequence (P25929 whole entry): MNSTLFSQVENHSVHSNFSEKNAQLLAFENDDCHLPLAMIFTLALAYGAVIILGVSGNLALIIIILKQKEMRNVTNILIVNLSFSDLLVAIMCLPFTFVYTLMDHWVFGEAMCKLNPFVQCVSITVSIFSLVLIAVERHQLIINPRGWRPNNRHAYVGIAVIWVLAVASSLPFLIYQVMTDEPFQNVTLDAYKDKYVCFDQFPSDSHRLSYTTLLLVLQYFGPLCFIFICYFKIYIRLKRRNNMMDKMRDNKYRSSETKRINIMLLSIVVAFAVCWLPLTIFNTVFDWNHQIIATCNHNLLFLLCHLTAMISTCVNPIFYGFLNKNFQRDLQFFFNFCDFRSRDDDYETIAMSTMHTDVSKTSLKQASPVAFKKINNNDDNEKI

Bcl-2-like protein 10 = molecular target: T6, Bcl-2-like protein 10 (Homo sapiens, UniProt Q9HD36); assay: Concentration-response of Bcl-B inhibitors by biochemical FP with TR3 (AID 1243)
T6 sequence (Q9HD36 whole entry): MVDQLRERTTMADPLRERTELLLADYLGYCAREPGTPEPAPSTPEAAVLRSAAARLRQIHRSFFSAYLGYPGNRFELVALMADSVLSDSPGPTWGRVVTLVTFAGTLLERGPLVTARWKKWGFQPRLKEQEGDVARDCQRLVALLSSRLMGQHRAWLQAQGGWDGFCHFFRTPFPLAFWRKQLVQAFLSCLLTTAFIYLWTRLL

With Cc1cc(C(=O)Cn2ncc(Cl)c(Cl)c2=O)c(C)n1CC(F)(F)F the EC50 (Protein RecA) was 2.72 µM (active), the CC50 (HeLa) was > 11 µM (not active) and the AC50 [1] was 3.01 µM (active). For the same molecule, the EC50 [2] was 2.06 µM (active), the EC50 [3] was 3.03 µM (active) and the IC50 [4] was 20.9 µM (active).

With CN(Cc1ccccc1NC(=O)c1ccc(S(=O)(=O)N(C)C)cc1)C1CCCCC1 the IC50 [5] was 29.9 µM (active).

With Cc1ccc(Cl)cc1NC(=O)c1cc2ccccc2cc1O the EC50 (HEK293) was > 35.4 µM (not active), the EC50 [6] was 15.1 µM (not active) and the EC50 [7] was 17.1 µM (not active).

In the case of O=C(O)c1cccc(-c2ccc(/C=N/Nc3ccc([N+](=O)[O-])cn3)o2)c1, the EC50 (Bcl-2-like protein 10) is reported as 9.64 µM (active).
